Tested on: human mesenchymal stem cells (hMSCs)
Assay: chondrogenic nodule formation by hMSCs (high throughput screen)
Type: cell-based
Details: not given
Method: The primary screening assay was based upon the development of chondrogenic nodules. Chondrocytes can grow in monolayer in vitro, but to more closely mimic their native environment in the joint, the cells are routinely cultured in non-adherent conditions such as in pellet cultures or alginate bead suspensions.
In the actual screen of a library of 22,000 structurally diverse heterocycles, 10^4 primary hMSCs were plated in 384 well plates in serum free DMEM. The cells were treated with 5 μM of each compound and incubated for 4 days. […] To facilitate high throughput imaged-based detection, the chondrogenic nodules were stained with […]. The Nile Red stained nodules were quantified on an Acumen eX3 (high content imaging device) by excitation with a 488 laser for rapid detection of the nodules.
Primary hMSCs grown in a 96 well Greiner plates (50,000/well) were incubated for 4 days in the presence of the 5 uM of each DMSO or 100 nM of PRO1. On day 4, the cells were fixed with 4% formalin for 10 minutes, washed and stained with 1 μg/ml of Rhodamine B for 2 hours at room temperature.

Row | SMILES | Activity (chondrogenic nodules formed in % of cells)
1 | O=C(O)c1ccccc1C(=O)Nc1ccncc1 [Compound N01] | *** (chondrogenic nodules formed in at least 50% but less than 75% of cells)
2 | O=C(O)c1ccccc1C(=O)Nc1ccc(P(=O)(O)O)cc1 [PA08] | ** (chondrogenic nodules formed in at least 25% but less than 50% of cells)
3 | O=C(O)c1ccccc1C(=O)Nc1ncco1 [Compound N35] | ** (chondrogenic nodules formed in at least 25% but less than 50% of cells)
4 | N#Cc1ccc(NC(=O)c2ccccc2S(N)(=O)=O)cc1 [Compound A23] | ** (chondrogenic nodules formed in at least 25% but less than 50% of cells)
5 | NC(=O)NCc1ccc(NC(=O)c2ccccc2C(=O)O)cc1 [PM10] | ** (chondrogenic nodules formed in at least 25% but less than 50% of cells)
6 | O=C(O)c1ccccc1C(=O)Nc1ccc(-c2ncc[nH]2)cc1 [PM18] | ** (chondrogenic nodules formed in at least 25% but less than 50% of cells)
7 | O=C(O)c1ccc2c(c1)C(=O)N(Cc1ccccc1C(=O)O)C2=O [MS39] | *** (chondrogenic nodules formed in at least 50% but less than 75% of cells)
8 | N#Cc1ccc(-c2c[nH]c3c(C(=O)O)cccc23)cc1 [MS21] | *** (chondrogenic nodules formed in at least 50% but less than 75% of cells)
9 | N#Cc1cccc(NC(=O)c2ccccc2C(=O)O)c1 [Compound N19] | *** (chondrogenic nodules formed in at least 50% but less than 75% of cells)
10 | CNS(=O)(=O)c1ccccc1C(=O)Nc1ccc(C#N)cc1 [Compound A24] | ** (chondrogenic nodules formed in at least 25% but less than 50% of cells)
11 | O=C(O)c1ccccc1C(=O)Nc1ccc(CCO)cc1 [Compound N26] | *** (chondrogenic nodules formed in at least 50% but less than 75% of cells)
12 | N#Cc1ccc(NC(=O)c2ccccc2NC(N)=O)cc1 [Compound A12] | ** (chondrogenic nodules formed in at least 25% but less than 50% of cells)
13 | N#Cc1ccc(CNC(=O)c2ccccc2C(=O)O)cc1 [MS06] | ** (chondrogenic nodules formed in at least 25% but less than 50% of cells)
14 | O=C(O)c1ccccc1C(=O)Nc1ccc(-c2ccccn2)cc1 [PM05] | ** (chondrogenic nodules formed in at least 25% but less than 50% of cells)
15 | O=C(O)c1cccc(NC(=O)c2ccccc2C(=O)O)c1 [Compound N14] | ** (chondrogenic nodules formed in at least 25% but less than 50% of cells)
16 | N#Cc1ccc(NC(=O)c2ccncc2C(=O)O)cc1 [Compound B19] | *** (chondrogenic nodules formed in at least 50% but less than 75% of cells)
17 | N#Cc1ccc(C(=O)CC2OC(=O)c3ccccc32)cc1 (centres unmarked) [MS17-1] | *** (chondrogenic nodules formed in at least 50% but less than 75% of cells)
18 | O=C(NO)c1ccc(NC(=O)c2ccccc2C(=O)O)cc1 [PA02] | ** (chondrogenic nodules formed in at least 25% but less than 50% of cells)
19 | N#Cc1cccc2[nH]c(-c3ccccc3C(=O)O)nc12 [Compound R01] | ** (chondrogenic nodules formed in at least 25% but less than 50% of cells)
20 | NC(=O)c1ccccc1NC(=O)c1ccccc1C(=O)O [Compound N10] | ** (chondrogenic nodules formed in at least 25% but less than 50% of cells)
21 | O=C(O)c1ccccc1C(=O)Nc1ccc(-c2nn[nH]n2)cc1 [PA06] | *** (chondrogenic nodules formed in at least 50% but less than 75% of cells)
22 | COC(=O)Nc1ccccc1C(=O)Nc1ccc(C#N)cc1 [Compound A11] | ** (chondrogenic nodules formed in at least 25% but less than 50% of cells)
23 | O=C(O)c1ccccc1C(=O)Nc1ccccc1OC(F)F [Compound N04] | *** (chondrogenic nodules formed in at least 50% but less than 75% of cells)
24 | CC(=O)c1ccc(NC(=O)c2ccccc2C(=O)O)cc1 [Compound N09] | ** (chondrogenic nodules formed in at least 25% but less than 50% of cells)
25 | N#Cc1ccc(NC(=O)Nc2ccccc2C(=O)O)cc1 [Compound R10] | ** (chondrogenic nodules formed in at least 25% but less than 50% of cells)

Row | SMILES | Activity (chondrogenic nodules formed in % of cells)
26 | O=C(O)c1ccccc1C(=O)Nc1nc(-c2ccccc2)cs1 [Compound N39] | ** (chondrogenic nodules formed in at least 25% but less than 50% of cells)
27 | O=C(O)c1ccccc1C(=O)Nc1ccc(S(=O)(=O)O)cc1 [PA07] | *** (chondrogenic nodules formed in at least 50% but less than 75% of cells)
28 | O=C(O)c1ccc(/C=C/C(=O)c2ccccc2C(=O)O)cc1 [MS16] | ** (chondrogenic nodules formed in at least 25% but less than 50% of cells)
29 | N#Cc1ccc(NC(=O)c2cccnc2C(=O)O)cc1 [Compound B20] | ** (chondrogenic nodules formed in at least 25% but less than 50% of cells)
30 | CC(=O)c1ccccc1C(=O)Nc1ccc(C#N)cc1 [Compound A09] | ** (chondrogenic nodules formed in at least 25% but less than 50% of cells)
31 | O=C(O)c1ccccc1C(=O)Nc1cccc(OC(F)F)c1 [Compound N05] | ** (chondrogenic nodules formed in at least 25% but less than 50% of cells)
32 | O=C(Cc1ccc(C(=O)O)cc1)Nc1ccccc1C(=O)O [MS14] | ** (chondrogenic nodules formed in at least 25% but less than 50% of cells)
33 | N#Cc1ccc(NC(=O)c2ccccc2-c2ccccc2C(=O)O)cc1 [Compound B32] | ** (chondrogenic nodules formed in at least 25% but less than 50% of cells)
34 | O=C(O)c1ccccc1NC(=O)c1ccccc1C(=O)O [Compound N13] | ** (chondrogenic nodules formed in at least 25% but less than 50% of cells)
35 | NS(=O)(=O)c1cccc(NC(=O)c2ccccc2C(=O)O)c1 [Compound N17] | ** (chondrogenic nodules formed in at least 25% but less than 50% of cells)
36 | O=C(O)c1ccccc1C(=O)Nc1nc(-c2ccccc2)co1 [Compound N38] | ** (chondrogenic nodules formed in at least 25% but less than 50% of cells)
37 | N#Cc1ccccc1CNC(=O)c1ccccc1C(=O)O [MS04] | ** (chondrogenic nodules formed in at least 25% but less than 50% of cells)
38 | N#Cc1ccc(NC(=O)c2ccccc2CC(=O)O)cc1 [Compound A06] | *** (chondrogenic nodules formed in at least 50% but less than 75% of cells)
39 | O=C(O)c1ccccc1C(=O)Nc1ccc(COc2ccccc2)cc1 [PM02] | ** (chondrogenic nodules formed in at least 25% but less than 50% of cells)
40 | O=C(O)c1ccccc1C(=O)NC1CCC(C(=O)O)CC1 (centres unmarked) [Compound N31] | ** (chondrogenic nodules formed in at least 25% but less than 50% of cells)
41 | CNCc1cccc(NC(=O)c2ccccc2C(=O)O)c1 [Compound N24] | *** (chondrogenic nodules formed in at least 50% but less than 75% of cells)
42 | N#Cc1ccc(C(=O)NCc2ccccc2C(=O)O)cc1 [MS11] | ** (chondrogenic nodules formed in at least 25% but less than 50% of cells)
43 | O=C(O)c1ccccc1C(=O)Nc1ncc[nH]1 [Compound N34] | ** (chondrogenic nodules formed in at least 25% but less than 50% of cells)
44 | CS(=O)(=O)Nc1ccccc1C(=O)Nc1ccc(C#N)cc1 [Compound A13] | ** (chondrogenic nodules formed in at least 25% but less than 50% of cells)
45 | O=C(O)c1ccccc1C(=O)Nc1ccccc1CO [Compound N20] | ** (chondrogenic nodules formed in at least 25% but less than 50% of cells)
46 | O=C(O)c1ccc(N2C(=O)c3ccccc3C2=O)cc1 [MS29] | *** (chondrogenic nodules formed in at least 50% but less than 75% of cells)
47 | O=C(O)c1ccccc1C(=O)Nc1cncs1 [Compound N42] | *** (chondrogenic nodules formed in at least 50% but less than 75% of cells)
48 | COC(=O)NCc1ccc(NC(=O)c2ccccc2C(=O)O)cc1 [PM11] | ** (chondrogenic nodules formed in at least 25% but less than 50% of cells)
49 | N#CC1CCC(NC(=O)c2ccccc2C(=O)O)CC1 (centres unmarked) [Compound N30] | ** (chondrogenic nodules formed in at least 25% but less than 50% of cells)

Same assay, conditions: Homo sapiens, Mesenchymal stem cells; first value of the cell (before the slash); read-out: CHONDROGENIC μM EC50

Row | SMILES | EC50 [µM]
50 | O=C(O)c1ccccc1C(=O)Nc1nnc(-c2ccccc2)s1 [LK57, 2-((5-phenyl-1,3,4-thiadiazol-2-yl)carbamoyl)benzoic acid] | > 10
